Test results taken from patent publication EP0403251A2, “Monokine activity interference” (SMITHKLINE BEECHAM CORPORATION, priority 1989, dated 1990).
Entries after “also recorded” stand apart in the source; their conditions may differ. Read-outs that look alike come from different tables or passages of the source.

Key:
[1] = tested on: TNF; experiment: In vivo endotoxin shock models (P. acnes model and/or LPS-GAL model, not specified which); parameters: species or system mice; conditions: for in vivo TNF levels / protection from endotoxic induced shock: one or both of the in vivo assays (P. acnes / LPS-GAL)
Experimental: Two models of endotoxin shock have been utilized to determine in vivo TNF activity and are described below. The actual protocoll used in the models is described in Utility Model Examples A and B set out below, i.e. P. Acnes model and LPS-GAL model.
(§1) Briefly, D-gal ([…]) sensitizes various strains of mice to the lethal effects of endotoxin. The administration of D-gal (300-500mg/kg) intra-venously (i.v.) sensitizes the mice to doses of Lipopolysaccharide(LPS ) as low as 0.1 mg. Briefly, male C57BL/6 mice, obtained from Charles River Laboratories (Stone Ridge, New York, USA) of 6-12 weeks of age were injected i.v. with 0.1 mg of LPS from Salmonella typhosa (Difco Laboratories, Detroit, Michigan, USA) admixed with D(+)-gal (Sigma; 500 mg/kg) in 0.20-0.25 ml pyrogen-free saline. Compounds to be tested were administered at various times prior to or following the iv. injection of LPS/D-gal.
(§2) This model is a modification of the previously described protocol for the in vivo induction of TNF as described in Haranaka et al., Cancer Immunol Immunother, 18:87-90, (1984). Treatment with Proprionibacterium Acnes (P. acnes) (1mg/animal i.p.) renders mice susceptible to the lethal effects of LPS injected 10 days later.
(§3) P. acnes was purchased from Burroughs Wellcome (Triangle Park, North Carolina, USA), and […]of the heat-killed bacteria was administered in 0.5 ml pyrogen-free saline by intraperitoneal (i.p.) injection to male C57BL/6 mice, obtained from Charles River Laboratories (Stone Ridge, New York, USA) of 6-12 weeks of age. Ten days later, the mice were injected iv. with 1 mg LPS in 0.25 ml saline. Compounds to be tested were administered at various times prior to or following the injection of LPS. The survival of animals was monitored for 1 week.
(§4) Plasma levels of TNF were measured using a modification of the basic sandwich ELISA method described in Winston et al., Current Protocols in Molecular Biology, Pg. 11.2.1, Ausubel et al., Ed. (1987) John Wiley and Sons, New York, USA. The Elisa employed a hampster monoclonal anti-mouse TNF (Genzyme, Boston, MA, USA) as the capture antibody and a polyclonal rabbit anti-murine TNF (Genzyme, Boston, MA, USA) as the detecting antibody. TNF levels in rat samples were calculated from a standard curve genereated with recombinant murine TNF (Genzyme, Boston, MA, USA).

[2] = tested on: IL-1 production by bacterial lipopolysaccharide (LPS)-stimulated human monocytes; conditions: cited from earlier work
[3] = target: T1, 5-lipoxygenase (Homo sapiens, UniProt P09917); conditions: Lee et al. 1988; cited from earlier work
T1 sequence (P09917 1-674): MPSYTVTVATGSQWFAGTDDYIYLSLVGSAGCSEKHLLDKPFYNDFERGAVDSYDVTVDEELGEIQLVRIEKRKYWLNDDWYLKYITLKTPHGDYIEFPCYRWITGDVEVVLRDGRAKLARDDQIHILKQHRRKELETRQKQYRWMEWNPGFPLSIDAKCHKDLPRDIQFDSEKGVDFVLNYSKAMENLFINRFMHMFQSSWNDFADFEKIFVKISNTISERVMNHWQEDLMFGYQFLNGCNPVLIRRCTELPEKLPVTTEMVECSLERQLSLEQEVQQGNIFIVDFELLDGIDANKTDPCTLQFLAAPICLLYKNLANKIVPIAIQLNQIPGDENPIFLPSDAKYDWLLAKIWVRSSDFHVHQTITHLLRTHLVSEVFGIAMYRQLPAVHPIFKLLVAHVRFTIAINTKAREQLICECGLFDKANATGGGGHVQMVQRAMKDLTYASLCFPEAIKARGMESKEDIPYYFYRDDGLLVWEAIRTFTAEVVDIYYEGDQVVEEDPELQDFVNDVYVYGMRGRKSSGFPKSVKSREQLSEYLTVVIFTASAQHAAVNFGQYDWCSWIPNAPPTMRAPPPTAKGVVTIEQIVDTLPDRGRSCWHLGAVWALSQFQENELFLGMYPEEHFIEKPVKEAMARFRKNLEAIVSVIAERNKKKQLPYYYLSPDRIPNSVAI

[4] = tested on: TNFa production by monocytes; conditions: Lee et al. 1988 and Badger et al. 1989; cited from earlier work
[5] = tested on: cyclooxygenase; conditions: Lee et al. 1988; cited from earlier work
[6] = tested on: TNF; experiment: Endotoxin shock in D-gal-sensitized mice (LPS-GAL model), TNF levels by ELISA and survival; assay type: in vivo; conditions: for reduction of serum TNF levels: LPS-GAL Model, 100 mg/kg, Figure 4; for survival rate: LPS-GAL model, animals with endotoxic shock, Figure 5, control group 30%
Experimental: as §1, with “The protocol used to test the compound of the method of the subject invention was essentially as has been described in Galanos et al., Proc. Nat'l Acad. Sci USA, 76:5939-43 (1979) whose disclosure is herein incorporated by reference. Briefly, D-gal” for “Briefly, D-gal”, “of LPS/D-gal. In this model, the control animals usually die 5-6 hr. following the injection of LPS, although on occasion deaths are seen between 24 and 48 hr.” for “of LPS/D-gal.”
as §4, with “USA). TNF levels determined by ELISA correlated with levels detected by the L929 bioassay of Ruff et. al., J. Immunol. 125:1671-1677 (1980), with 1 Unit of activity in the bioassay corresponding to 70 picograms (pg) of TNF in the ELISA. The ELISA detected levels of TNF down to 25 pg/ml.” for “USA).”

[7] = tested on: TNFa; conditions: Badger et al. 1989, cited from earlier work
[8] = tested on: TNF; experiment: Endotoxin shock in P. acnes-sensitized mice (P. acnes/LPS model), TNF levels by ELISA; assay type: in vivo; conditions: P acnes/LPS treated mice, increased oral dosage, Figure 1
Experimental: as §2, §3
Plasma levels of TNF were measured using a modification of the basic sandwich ELISA method described in Winston et al., Current Protocols in Molecular Biology, Pg. 11.2.1, Ausubel et al., Ed. (1987) John Wiley and Sons, New York, USA. […] TNF levels in rat samples were calculated from a standard curve genereated with recombinant murine TNF (Genzyme, Boston, MA, USA). TNF levels determined by ELISA correlated with levels detected by the L929 bioassay of Ruff et. al., J. Immunol. […] The ELISA detected levels of TNF down to 25 pg/ml.

[9] = tested on: TNF Production by Human Monocytes; experiment: Inhibitory effect on in vitro LPS induced TNF production by human monocytes (ELISA); assay type: cell-based; conditions: Monocyte; LPS (50 ng/ml) induced TNF, human peripheral blood monocytes, compound added 1 hr before LPS, 24 hours; NA - not active; read-out: IC₅₀
Experimental: The effects of the compounds enumerated above on the in vitro production of TNF by human monocytes was examined using the following protocol..
Bacterial lipopolysaccharide (LPS) was used to induce TNF production by human peripheral blood monocytes. TNF activity was measured by a modification of Winston et al., ELISA, described below. Human peripheral blood monocytes were isolated and purified from either fresh blood preparations from volunteer donors, from blood bank buffy coats, or from plateletpheresis residues according to the procedure of Colotta et al., J. Immunol., 132, 936 (1984). 1 X 10⁶ of such monocytes were plated in 24-well plates at a concentration of 1-2 million/ml per well. The cells were allowed to adhere for 2 hours, after which time non-adherent cells were removed by gentle washing. Test compounds were then added to the cells for 1 hour (hr) before the addition of LPS (50 ng/ml), and the cultures were incubated at 37 °C for an additional 24 hours. At the end of the incubation period, culture supernatants were removed and clarified of cells and all debris. Culture supernatants were immediately assayed for TNF levels in the manner described below.
Levels of TNF were mesured using a modification of the basic sandwich ELISA assay method described in Winston et al., Current Protocols in Molecular Biology. Page 11.2.1, Ausubel et al., Ed. (1987) John Wiley and Sons, New York, USA The Elisa employes a murine monoclonal anti-human TNF antibody, described below, as the capture antibody and a polyclonal rabbit anti-human TNF , described below, as the second antibody. For detection, a peroxidase-conjgated goat anti-rabbit antibody (Boehringer Mannheim, Indianopolis, Indiana, USA, Catalog #605222) was added followed by a substrate for peroxidase (1mg/ml orthophenylenediamine with 0.1% urea peroxide). TNF levels in samples were calculated from a standard curve genereated with recombinant human TNF produced in E. Coli (obtained from SmithKline Beecham Pharmaceuticals, King of Prussisa, PA, USA).
Monoclonal antibodies to human TNF were prepared from spleens of BALB/c mice immunized with recombinant human TNF using a modification of the method of Kohler and Millstein, Nature 256: 495(1975), the entire disclosure of which is hereby incorporated by reference. Polyclonal rabbit anti-human TNF antibodies were prepared by repeated immunization of New Zeland White (NZW) rabbits with recombinant human TNF emulsified in complete Freund's adjuvant (DIFCO, IL., USA).

## O=S1(=O)CCn2c1nc(-c1ccc(F)cc1)c2-c1ccncc1 [6-(4-Fluorophenyl)-5-(4-pyridyl)-2,3-dihydroimidazo[2,1-b]thiazole-1,1-dioxide]
[1]
  in vivo TNF levels: inhibited in vivo TNF levels
  protection from endotoxic induced shock: protected the animals from endotoxic induced shock

## Fc1ccc(-c2nc3n(c2-c2ccncc2)CCS3)cc1 [Compound 1, 6-(4-Flurophenyl)-5-(4′pyridyl)-2,3-dihydroimidazo[2,1-b]-thiazole]
[1]; P. Acnes model and LPS-GAL model
  protection from the lethal effects of endotoxin shock: protection from the lethal effects of endotoxin shock
[1]
  in vivo TNF levels: reduce the in vivo level of tumor necrosis factor (TNF)
[2]; Lee et al. 1988, listed as 5-(4-pyridyl)-6(4-fluorophenyl)-2,3-dihydroimidazo(2,1-B)-thiazole
  IL-1 production: inhibit
[2]; Lee et al. 1988, listed as 5-(4-pyridyl)-6(4-fluorophenyl)-2,3-dihydroimidazo(2,1-B)thiazole
  IL-1 production: potent inhibitor
[3]
  5-lipoxygenase-mediated arachidonate metabolism: inhibits
[4]
  TNFa production by monocytes: inhibit
[5]
  cyclooxygenase-mediated arachidonate metabolism: inhibits
[6]
  reduction of serum TNF levels: reduction of serum TNF levels
  survival rate: 100%
[6]; LPS-Gal mouse model, i.p. injection, Figure 3
  TNF production: inhibitis TNF production
[7]; mouse models of LPS-induced shock
  circulating levels of TNFa: inhibition of circulating levels of TNFa
[7]; two mouse models
  protection against LPS-induced shock: protection

## C[S+]([O-])c1ccc(-c2nc3n(c2-c2ccncc2)CCC3)cc1 (stereo not drawn) [Compound 2, 2-(4-Methylsulfoxyphenyl)3-(4-pyridyl)-6,7-dihydro[5H]-pyrrolo-[1,2-a]imidazole]
[1]
  in vivo TNF levels: in vivo activity; also recorded: reduce the in vivo level of tumor necrosis factor (TNF)
[8]
  serum TNF levels: reduction in serum TNF levels
[6]
  reduction of serum TNF levels: reduction of serum TNF levels
  survival rate: 100%

## CSc1ccc(-c2nc3n(c2-c2ccncc2)CCC3)cc1 [Compound 3, 2-(4-methylthiophenyl)-3-(4-pyridyl)-6,7-dihydro-[5H]-pyrrolo[1,2-a]-imidazole]
[9]
  IC50: 1 µM

## COc1ccc(-c2nc3n(c2-c2ccncc2)CCC3O)cc1 (stereo not drawn) [Compound 8, 5,6-dihydro-2-(4-methoxyphenyl)-3-(4-pyridinyl)-[7H]-pyrrolo[1,2-a]-imidazole-7-ol]
[9]
  IC50: 1 µM

## CC(=O)OCSc1ccc(-c2nc3n(c2-c2ccncc2)CCC3)cc1 [Compound 9, 2-(4-Acetoxymethylthiophenyl)3-(4-pyridyl)-6,7-dihydro[5H]pyrrolo-[1,2-a]-imidazole]
[9]
  IC50: 3 µM

## COc1ccc(-c2nc3n(c2-c2ccncc2)CCC3)cc1 [Compound 10, 2-(4-Methoxyphenyl)-3-(4-pyridyl)-6,7-dihydro-[5H]-pyrrolo-[1,2-a]imidazole]
[9]
  IC50: 0.5 µM

## O=S1(=O)CCn2c1nc(-c1ccc(F)cc1)c2-c1ccncc1 [Compound 14, 6-(4-Fluorophenyl)-5-(4-pyridyl)-2,3-dihydroimidazo[2,1-b]thiazole-1,1-dioxide]
[9]
  IC50: 9 µM

## CC[S+]([O-])c1ccc(-c2nc3n(c2-c2ccncc2)CCC3)cc1 (stereo not drawn) [Compound 15, 2-(4-Ethylsulfinylphenyl)-3-(4-pyridyl)-6,7-dihydro[5H]pyrrolo[1,2-a]imidazole]
[1]
  in vivo TNF levels: inhibited in vivo TNF levels
  protection from endotoxic induced shock: protected the animals from endotoxic induced shock
[9]
  IC50: 7 µM

## CSc1ccc(-c2nc3n(c2-c2ccnc(C)c2)CCC3)cc1 [Compound 16, 2-(4-Methylthiophenyl)-3-[4-(2-methylpyridyl)]-6,7-dihydro[5H]pyrrolo-[1,2-a]imidazole]
[1]
  in vivo TNF levels: inhibited in vivo TNF levels
